Consider 49 compounds from US20080293795A1, “COMBINATION THERAPY WITH PARP INHIBITORS” (ABBOTT LABORATORIES, priority 2006, published 2008).

The Ki is a dissociation constant, usually derived from enzyme kinetics or from competition with a known ligand.

The target of this assay is T1, Recombinant Human Poly(ADP-Ribose) Polymerase (PARP) (Homo sapiens, UniProt P09874).
T1 construct: purchased Trevigen, Gaithersburg, Md; host or cells: E. coli
T1 sequence (P09874 whole entry): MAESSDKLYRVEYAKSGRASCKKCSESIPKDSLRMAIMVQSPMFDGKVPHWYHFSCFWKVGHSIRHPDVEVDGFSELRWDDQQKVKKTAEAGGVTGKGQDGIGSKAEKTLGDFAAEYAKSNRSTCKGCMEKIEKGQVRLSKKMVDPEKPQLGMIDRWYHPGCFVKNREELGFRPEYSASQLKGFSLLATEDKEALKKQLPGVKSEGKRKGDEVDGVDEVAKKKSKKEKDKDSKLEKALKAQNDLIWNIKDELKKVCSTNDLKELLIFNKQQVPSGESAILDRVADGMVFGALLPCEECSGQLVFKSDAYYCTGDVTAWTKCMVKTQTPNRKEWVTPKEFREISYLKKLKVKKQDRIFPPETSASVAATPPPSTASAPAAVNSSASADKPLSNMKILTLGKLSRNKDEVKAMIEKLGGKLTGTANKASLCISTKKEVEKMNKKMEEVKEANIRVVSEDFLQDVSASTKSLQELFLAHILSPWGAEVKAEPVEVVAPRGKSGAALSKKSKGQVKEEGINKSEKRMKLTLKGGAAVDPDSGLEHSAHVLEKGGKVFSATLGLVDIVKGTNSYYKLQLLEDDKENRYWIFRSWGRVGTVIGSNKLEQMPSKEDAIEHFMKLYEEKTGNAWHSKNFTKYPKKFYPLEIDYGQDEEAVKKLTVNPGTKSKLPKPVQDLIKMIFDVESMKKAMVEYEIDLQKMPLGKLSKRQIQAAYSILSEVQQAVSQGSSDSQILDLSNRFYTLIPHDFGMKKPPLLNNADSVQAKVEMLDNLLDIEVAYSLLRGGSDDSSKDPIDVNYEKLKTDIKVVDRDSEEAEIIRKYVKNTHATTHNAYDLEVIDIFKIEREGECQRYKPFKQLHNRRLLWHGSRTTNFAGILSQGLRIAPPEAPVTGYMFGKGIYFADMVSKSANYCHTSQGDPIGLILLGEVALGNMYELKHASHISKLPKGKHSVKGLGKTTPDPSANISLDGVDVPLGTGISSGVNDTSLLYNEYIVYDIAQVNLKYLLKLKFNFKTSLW
As to the kind of experiment: PARP1 inhibition assay ([3H]-NAD+, biotinylated histone H1, FlashPlate/SPA). Type of assay: biochemical. The following applies: from inhibition curves at various substrate concentrations.
Experimental: Nicotinamide[2,5′,8-3H]adenine dinucleotide and strepavidin SPA beads were purchased from Amersham Biosiences (UK) Recombinant Human Poly(ADP-Ribose) Polymerase (PARP) purified from E. coli and 6-Biotin-17-NAD^+, were purchase from Trevigen, Gaithersburg, Md. NAD^+, Histone, aminobenzamide, 3-amino benzamide and Calf Thymus DNA (dcDNA) were purchased from Sigma, St. Louis, Mo. […] Biotinylated histone H1 was prepared by treating the protein with Sulfo-NHS-LC-Biotin from Pierce Rockford, Ill. […] Streptavidin coated (FlashPlate Plus) microplates were purchased from Perkin Elmer, Boston, Mass.
PARP1 assay was conducted in PARP assay buffer containing 50 mM Tris pH 8.0, 1 mM DTT, 4 mM MgCl2. […] 170 μl of the stopped reaction mixtures were transferred to streptavidin Flash Plates, incubated for 1 hr, and counted using a TopCount microplate scintillation counter.
With `NC(=O)c1cccc2[nH]c(C3CCN(C4CCCCC4)C3)nc12` (stereo not shown) [2-(1-cyclohexylpyrrolidin-3-yl)-1H-benzimidazole-4-carboxamide], the Ki was 7 nM.

With `CCCN1CC(C)(c2nc3c(C(N)=O)cccc3[nH]2)C1` [2-(3-methyl-1-propylazetidin-3-yl)-1H-benzimidazole-4-carboxamide], the Ki came to 6.9 nM.

Take `CCCN1CCC(C)(c2nc3c(C(N)=O)cccc3[nH]2)C1` (stereo not shown) [2-(3-methyl-1-propylpyrrolidin-3-yl)-1H-benzimidazole-4-carboxamide]: the Ki is 4.2 nM.

In the case of `CC(C)CN1CCC(c2nc3c(C(N)=O)cccc3[nH]2)C1` (stereo not shown) [2-(1-isobutylpyrrolidin-3-yl)-1H-benzimidazole-4-carboxamide], the inhibition constant (Ki) came to 7.4 nM.

As to `CN(C)S(=O)(=O)N1CC(C)(c2nc3c(C(N)=O)cccc3[nH]2)C1` [2-{1-[(dimethylamino)sulfonyl]-3-methylazetidin-3-yl}-1H-benzimidazole-4-carboxamide], the Ki was 7 nM.

As for `CN(C)S(=O)(=O)N1CCC(C)(c2nc3c(C(N)=O)cccc3[nH]2)CC1` [2-{1-[(dimethylamino)sulfonyl]-4-methylpiperidin-4-yl}-1H-benzimidazole-4-carboxamide], the inhibition constant Ki worked out at 8.8 nM.

With `NC(=O)c1cccc2[nH]c(C3CCN(Cc4ccncc4)C3)nc12` (stereo not shown) [2-[1-(pyridin-4-ylmethyl)pyrrolidin-3-yl]-1H-benzimidazole-4-carboxamide], the Ki was 14.2 nM.

As to `CN(C)S(=O)(=O)N1CCC(c2nc3c(C(N)=O)cccc3[nH]2)CC1` [2-{1-[(dimethylamino)sulfonyl]piperidin-4-yl}-1H-benzimidazole-4-carboxamide], the inhibition constant Ki worked out at 31.1 nM.

For the compound `NC(=O)c1cccc2[nH]c(C3CCCN(C4CCCCC4)CC3)nc12` (stereo not shown) [2-(1-cyclohexylazepan-4-yl)-1H-benzimidazole-4-carboxamide], the Ki stood at 4.8 nM.

Consider `CC1(c2nc3c(C(N)=O)cccc3[nH]2)CN(C2CCOCC2)C1` [2-(3-methyl-1-tetrahydro-2H-pyran-4-ylazetidin-3-yl)-1H-benzimidazole-4-carboxamide], for which the Ki came to 12.7 nM.

`NC(=O)c1cccc2[nH]c(C3CCN(CC4CC4)C3)nc12` (stereo not shown) [2-[1-(cyclopropylmethyl)pyrrolidin-3-yl]-1H-benzimidazole-4-carboxamide]: the Ki came out at 5.2 nM.

For `CC1(c2nc3c(C(N)=O)cccc3[nH]2)CN(C2CCCCC2)C1` [2-(1-cyclohexyl-3-methylazetidin-3-yl)-1H-benzimidazole-4-carboxamide], the Ki is 5.6 nM.

In the case of `NC(=O)c1cccc2[nH]c(C3CN(CC4CC4)C3)nc12` [2-[1-(cyclopropylmethyl)azetidin-3-yl]-1H-benzimidazole-4-carboxamide], the inhibitory constant (Ki) is 19 nM.

On to `CC1(c2nc3c(C(N)=O)cccc3[nH]2)CCN(C2CCCC2)C1` (stereo not shown) [2-(1-cyclopentyl-3-methylpyrrolidin-3-yl)-1H-benzimidazole-4-carboxamide], for which the Ki worked out at 3.4 nM.

Regarding `CCCN1CCC[C@@H]1c1nc2c(C(N)=O)cccc2[nH]1` [2-[(2R)-1-propylpyrrolidin-2-yl]-1H-benzimidazole-4-carboxamide], the Ki was 146 nM.

`NC(=O)c1cccc2[nH]c(C3CCN(C4CCC4)C3)nc12` (stereo not shown) [2-(1-cyclobutylpyrrolidin-3-yl)-1H-benzimidazole-4-carboxamide]: the Ki was determined as 6.8 nM.

On to `CC(C)CN1CC(C)(c2nc3c(C(N)=O)cccc3[nH]2)C1` [2-(1-isobutyl-3-methylazetidin-3-yl)-1H-benzimidazole-4-carboxamide], for which the Ki turned out to be 5.6 nM.

`CC(CCc1ccccc1)N1CCC(c2nc3c(C(N)=O)cccc3[nH]2)C1` (stereo not shown) [2-[1-(1-methyl-3-phenylpropyl)pyrrolidin-3-yl]-1H-benzimidazole-4-carboxamide]: the Ki amounted to 13.2 nM.

With `CN(C)S(=O)(=O)N1CC(c2nc3c(C(N)=O)cccc3[nH]2)C1` [2-{1-[(dimethylamino)sulfonyl]azetidin-3-yl}-1H-benzimidazole-4-carboxamide], the Ki worked out at 16 nM.

Regarding `CC(CCc1ccccc1)N1CCC(C)(c2nc3c(C(N)=O)cccc3[nH]2)C1` (stereo not shown) [2-[3-methyl-1-(1-methyl-3-phenylpropyl)pyrrolidin-3-yl]-1H-benzimidazole-4-carboxamide], the Ki is 12 nM.

`CC(C)N1CCC[C@@H]1c1nc2cccc(C(N)=O)c2[nH]1` [2-[(2R)-1-isopropylpyrrolidin-2-yl]-1H-benzimidazole-4-carboxamide]: the inhibition constant Ki was determined as 12.8 nM.

Consider `CC1(c2nc3c(C(N)=O)cccc3[nH]2)CCN1C1CCCC1` (stereo not shown) [2-(1-cyclopentyl-2-methylazetidin-2-yl)-1H-benzimidazole-4-carboxamide], for which the Ki came to 31.1 nM.

Take `NC(=O)c1cccc2[nH]c(C3CN(C4CCCCC4)C3)nc12` [2-(1-cyclohexylazetidin-3-yl)-1H-benzimidazole-4-carboxamide]: the Ki came out at 16 nM.

As for `CC(C)N1CCC[C@H]1c1nc2c(C(N)=O)cccc2[nH]1` [2-[(2S)-1-isopropylpyrrolidin-2-yl]-1H-benzimidazole-4-carboxamide], the Ki turned out to be 19.3 nM.

Regarding `NC(=O)c1cccc2[nH]c(C3CCN3C3CCC3)nc12` (stereo not shown) [2-(1-cyclobutylazetidin-2-yl)-1H-benzimidazole-4-carboxamide], the Ki was found to be 80 nM.

`CCN1CCC[C@H]1c1nc2c(C(N)=O)cccc2[nH]1` [2-[(2S)-1-ethylpyrrolidin-2-yl]-1H-benzimidazole-4-carboxamide]: the Ki came out at 49 nM.

Take `CC1(c2nc3c(C(N)=O)cccc3[nH]2)CCN1C1CCC1` (stereo not shown) [2-(1-cyclobutyl-2-methylazetidin-2-yl)-1H-benzimidazole-4-carboxamide]: the Ki is 33.3 nM.

Regarding `CC1(c2nc3c(C(N)=O)cccc3[nH]2)CCN1C1CCCCC1` (stereo not shown) [2-(1-cyclohexyl-2-methylazetidin-2-yl)-1H-benzimidazole-4-carboxamide], the Ki was 27.7 nM.

For `CC(C)CN1CCC(C)(c2nc3c(C(N)=O)cccc3[nH]2)C1` (stereo not shown) [2-(1-isobutyl-3-methylpyrrolidin-3-yl)-1H-benzimidazole-4-carboxamide], the Ki stood at 3.8 nM.

`CC1(c2nc3c(C(N)=O)cccc3[nH]2)CCN(C2CCCCC2)C1` (stereo not shown) [2-(1-cyclohexyl-3-methylpyrrolidin-3-yl)-1H-benzimidazole-4-carboxamide]: the Ki turned out to be 5.8 nM.

Consider `NC(=O)c1cccc2[nH]c(C3CCN(C4CCOCC4)C3)nc12` (stereo not shown) [2-(1-tetrahydro-2H-pyran-4-ylpyrrolidin-3-yl)-1H-benzimidazole-4-carboxamide], for which the Ki came to 8.2 nM.

For the compound `NC(=O)c1cccc2[nH]c(C3CCN(C4CCC4)CC3)nc12` [2-(1-cyclobutylpiperidin-4-yl)-1H-benzimidazole-4-carboxamide], the Ki stood at 6.3 nM.

As for `NC(=O)c1cccc2[nH]c([C@H]3CCCN3C3CCC3)nc12` [2-[(2R)-1-cyclobutylpyrrolidin-2-yl]-1H-benzimidazole-4-carboxamide], the Ki came out at 142 nM.

Turning to `NC(=O)c1cccc2[nH]c(C3CCN3C3CCCCC3)nc12` (stereo not shown) [2-(1-cyclohexylazetidin-2-yl)-1H-benzimidazole-4-carboxamide], the Ki stood at 245 nM.

As to `NC(=O)c1cccc2[nH]c([C@@H]3CCCN3C3CCC3)nc12` [2-[(2S)-1-cyclobutylpyrrolidin-2-yl]-1H-benzimidazole-4-carboxamide], the Ki stood at 338 nM.

For `CCCN1CC(c2nc3c(C(N)=O)cccc3[nH]2)C1` [2-(1-propylazetidin-3-yl)-1H-benzimidazole-4-carboxamide], the Ki worked out at 14.1 nM.

On to `CC(C)N1CCC(c2nc3c(C(N)=O)cccc3[nH]2)CC1` [2-(1-isopropylpiperidin-4-yl)-1H-benzimidazole-4-carboxamide], for which the Ki was found to be 6 nM.

For `CC1(c2nc3c(C(N)=O)cccc3[nH]2)CN(C2CCCC2)C1` [2-(1-cyclopentyl-3-methylazetidin-3-yl)-1H-benzimidazole-4-carboxamide], the Ki is 4 nM.

For the compound `CCCN1CCC(c2nc3c(C(N)=O)cccc3[nH]2)C1` (stereo not shown) [2-(1-propylpyrrolidin-3-yl)-1H-benzimidazole-4-carboxamide], the Ki worked out at 8.1 nM.

As for `CC1(c2nc3c(C(N)=O)cccc3[nH]2)CCCN(C2CCCCC2)CC1` (stereo not shown) [2-(1-cyclohexyl-4-methylazepan-4-yl)-1H-benzimidazole-4-carboxamide], the Ki came to 11.9 nM.

As to `CC1(c2nc3c(C(N)=O)cccc3[nH]2)CCN(C2CCC2)C1` (stereo not shown) [2-(1-cyclobutyl-3-methylpyrrolidin-3-yl)-1H-benzimidazole-4-carboxamide], the Ki was determined as 4 nM.

As to `CC(C)N1CCC1c1nc2c(C(N)=O)cccc2[nH]1` (stereo not shown) [2-(1-isopropylazetidin-2-yl)-1H-benzimidazole-4-carboxamide], the Ki is 118 nM.

Turning to `CC1(c2nc3c(C(N)=O)cccc3[nH]2)CCN(C2CCC2)CC1` [2-(1-cyclobutyl-4-methylpiperidin-4-yl)-1H-benzimidazole-4-carboxamide], the Ki is 9.2 nM.

Consider `CC1(c2nc3c(C(N)=O)cccc3[nH]2)CCN(Cc2ccncc2)C1` (stereo not shown) [2-[3-methyl-1-(pyridin-4-ylmethyl)pyrrolidin-3-yl]-1H-benzimidazole-4-carboxamide], for which the Ki worked out at 8.9 nM.

As to `CC(C)CN1CC(c2nc3c(C(N)=O)cccc3[nH]2)C1` [2-(1-isobutylazetidin-3-yl)-1H-benzimidazole-4-carboxamide], the Ki worked out at 14.4 nM.

`NC(=O)c1cccc2[nH]c(C3CN(C4CCC4)C3)nc12` [2-(1-cyclobutylazetidin-3-yl)-1H-benzimidazole-4-carboxamide]: the inhibitory constant (Ki) came out at 16.4 nM.

On to `CCN1CCCC1(C)c1nc2c(C(N)=O)cccc2[nH]1` (stereo not shown) [2-(1-ethyl-2-methylpyrrolidin-2-yl)-1H-benzimidazole-4-carboxamide], for which the Ki turned out to be 6 nM.

As to `CC1(c2nc3c(C(N)=O)cccc3[nH]2)CCN(CC2CC2)C1` (stereo not shown) [2-[1-(cyclopropylmethyl)-3-methylpyrrolidin-3-yl]-1H-benzimidazole-4-carboxamide], the Ki came out at 5 nM.

For `CCCN1CCC[C@H]1c1nc2c(C(N)=O)cccc2[nH]1` [2-[(2S)-1-propylpyrrolidin-2-yl]-1H-benzimidazole-4-carboxamide], the inhibitory constant (Ki) was 129 nM.
